According to ChEMBL document CHEMBL6177993, “De Novo 3-(Phenylcarbamoyl) Benzoate Analogues: Efficacy against Multidrug-Resistant S. aureus and Elucidation of the Biodistribution Profile” (J Med Chem, 2025):
In brackets after ≈: the same amount, converted by molar mass.

Legend:
Format in all cases: functional
Settings in all cases: time 18-24 hrs
[1] = system: Escherichia coli; experiment: Antibacterial activity against Escherichia coli ATCC 25922 assessed as reduction in bacterial growth measured after 18 to 24 hrs by broth microdilution method
[2] = system: Pseudomonas aeruginosa; experiment: Antibacterial activity against Pseudomonas aeruginosa ATCC 27853 assessed as reduction in bacterial growth measured after 18 to 24 hrs by broth microdilution method
[3] = system: Enterococcus faecalis; experiment: Antibacterial activity against Enterococcus faecalis ATCC 35550 assessed as reduction in bacterial growth measured after 18 to 24 hrs by broth microdilution method
[4] = system: Staphylococcus aureus; experiment: Antibacterial activity against Staphylococcus aureus ATCC 29213 assessed as reduction in bacterial growth measured after 18 to 24 hrs by broth microdilution method
[5] = system: Acinetobacter baumannii; experiment: Antibacterial activity against Acinetobacter baumannii BAA 1605 assessed as reduction in bacterial growth measured after 18 to 24 hrs by broth microdilution method
[6] = system: Bacillus subtilis; experiment: Antibacterial activity against Bacillus subtilis IITKSM1 assessed as reduction in bacterial growth measured after 18 to 24 hrs by broth microdilution method
[7] = system: Klebsiella pneumoniae; experiment: Antibacterial activity against Klebsiella pneumoniae BAA 1705 assessed as reduction in bacterial growth measured after 18 to 24 hrs by broth microdilution method

| SMILES | MIC [1] [µg/mL] | MIC [2] [µg/mL] | MIC [3] [µg/mL] | MIC [4] [µg/mL] | MIC [5] [µg/mL] | MIC [6] [µg/mL] | MIC [7] [µg/mL] |
| --- | --- | --- | --- | --- | --- | --- | --- |
| O=C(O)c1cccc(C(=O)Nc2c(C(c3ccccc3)c3ccccc3)cc(Br)cc2C(c2ccccc2)c2ccccc2)c1 | > 64 | > 64 | 2 (≈ 3.06 µM) | 4 (≈ 6.13 µM) | > 64 | 2 (≈ 3.06 µM) | > 64 |
| O=C(O)c1cccc(C(=O)Nc2c(C(c3ccccc3)c3ccccc3)cc(C(c3ccccc3)c3ccccc3)cc2C(c2ccccc2)c2ccccc2)c1 | > 64 | > 64 | 8 (≈ 10.8 µM) | > 64 | > 64 | 64 (≈ 86.5 µM) | > 64 |
| O=C(O)c1cccc(C(=O)Nc2c(C(c3ccccc3)c3ccccc3)cc(F)cc2C(c2ccccc2)c2ccccc2)c1 | > 64 | > 64 | 2 (≈ 3.38 µM) | 4 (≈ 6.76 µM) | > 64 | 1 (≈ 1.69 µM) | > 64 |
| O=C(O)c1cccc(C(=O)Nc2c(C(c3ccccc3)c3ccccc3)cc(C(F)(F)F)cc2C(c2ccccc2)c2ccccc2)c1 | > 64 | > 64 | 16 (≈ 24.9 µM) | > 64 | > 64 | 1 (≈ 1.56 µM) | > 64 |
| O=C(O)c1cccc(C(=O)Nc2c(C(c3ccccc3)c3ccccc3)cc(OC(F)(F)F)cc2C(c2ccccc2)c2ccccc2)c1 | > 64 | > 64 | 2 (≈ 3.04 µM) | 2 (≈ 3.04 µM) | > 64 | 2 (≈ 3.04 µM) | > 64 |
| Cc1cc(C(c2ccccc2)c2ccccc2)c(NC(=O)c2cccc(C(=O)O)c2)c(C(c2ccccc2)c2ccccc2)c1 | > 64 | > 64 | 64 (≈ 109 µM) | 4 (≈ 6.81 µM) | > 64 | 64 (≈ 109 µM) | > 64 |

Next, values leading:

| MIC [1] [µg/mL] | MIC [2] [µg/mL] | MIC [3] [µg/mL] | MIC [4] [µg/mL] | MIC [5] [µg/mL] | MIC [6] [µg/mL] | MIC [7] [µg/mL] | SMILES |
| --- | --- | --- | --- | --- | --- | --- | --- |
| > 64 | > 64 | 64 (≈ 106 µM) | 8 (≈ 13.3 µM) | > 64 | 32 (≈ 53 µM) | > 64 | COc1cc(C(c2ccccc2)c2ccccc2)c(NC(=O)c2cccc(C(=O)O)c2)c(C(c2ccccc2)c2ccccc2)c1 |
| > 64 | > 64 | 2 (≈ 3.13 µM) | 4 (≈ 6.25 µM) | > 64 | 1 (≈ 1.56 µM) | > 64 | O=C(O)c1cccc(C(=O)Nc2c(C(c3ccccc3)c3ccccc3)cc(OC(F)F)cc2C(c2ccccc2)c2ccccc2)c1 |
| > 64 | > 64 | > 64 | > 64 | > 64 | > 64 | > 64 | CC(c1ccccc1)c1cc(C(C)(C)C)cc(C(C)c2ccccc2)c1NC(=O)c1cccc(C(=O)O)c1 (stereo unspecified) |
| > 64 | > 64 | > 64 | > 64 | > 64 | > 64 | > 64 | CC(c1ccccc1)c1cc(Cl)cc(C(C)c2ccccc2)c1NC(=O)c1cccc(C(=O)O)c1 (stereo unspecified) |
| > 64 | > 64 | 2 (≈ 3.18 µM) | 16 (≈ 25.4 µM) | > 64 | 8 (≈ 12.7 µM) | > 64 | CCCCc1cc(C(c2ccccc2)c2ccccc2)c(NC(=O)c2cccc(C(=O)O)c2)c(C(c2ccccc2)c2ccccc2)c1 |
| > 64 | > 64 | 8 (≈ 12.9 µM) | 4 (≈ 6.47 µM) | > 64 | 4 (≈ 6.47 µM) | > 64 | O=C(O)c1cccc(C(=O)Nc2c(C(c3ccccc3)c3ccccc3)cc([N+](=O)[O-])cc2C(c2ccccc2)c2ccccc2)c1 |
| > 64 | > 64 | 64 (≈ 104 µM) | 64 (≈ 104 µM) | > 64 | 1 (≈ 1.62 µM) | > 64 | CCOc1cc(C(c2ccccc2)c2ccccc2)c(NC(=O)c2cccc(C(=O)O)c2)c(C(c2ccccc2)c2ccccc2)c1 |
